The values below come from article PMC9388626, “STUB1 is an intracellular checkpoint for interferon gamma sensing” (Scientific Reports, 2022).

In series [1] the test system is MCF7 cells. The series is described as follows: Growth inhibition, CellTiter-Fluor (live-cell protease activity). In kind it is cell-based, human. Also noted: scale not given here. Particulars: 10 ng ml-1 each, 6-day. Here is the method: Parental and CRISPR-edited tumour cells were seeded in a cell density of 1800 (DU145), 2000 (PC-3), or 10,000 (MCF7) per well in 96-well CellCarrier plate (PelkinElmer, #6005550) filled with 50 µl culture media + 10% FBS. After 20–24 h incubation, the cells were treated with 10 ng ml^−1 of recombinant human IFNγ (R&D Systems, 285-IF-100), 10 ng ml^−1 of recombinant human TNFα (R&D Systems, 210-TA-020/CF) or a combination of both, by adding an equal volume of the complete culture media containing the cytokines. After incubating for 6 days without media change, the CellTiter-Glo 2.0 (Promega, G9243) or CellTiter-Fluor (Promega, G6082) assay were performed according to manufacturer’ instructions. The luminescence or fluorescence (Ex: 380–400 nm, Em: 505 nm) were detected by Inifinte M1000 PRO (Tecan). For CellTiter-Fluor, triplicate wells without cells were included to determine background fluorescence and the signal average was used for background substraction.

In series [2] the test system is B16-F10 cells. The series is described as follows: Flow cytometry, surface level of other cytokine receptors (IL1R1, IL6R, GP130, IFNAR1). Type of series: cell-based, murine. As for the experimental part:
Cells were dissociated from the wells with 0.25% trypsin (Gibco, 25200056). After rinsing with 0.5 ml PBS, each sample was stained with the LIVE/DEAD Fixable Aqua dead cell staining solution (Life Technologies, L34957) in 100 µl PBS (1:1000 dilution) for 15 min at 4 °C. After rinsing with 2 × 0.5 ml PBS, each sample was stained with the corresponding primary antibody-dye conjugates diluted in 100 µl Pharmingen stain buffer (BD Biosciences, #554657). After 1 h staining at 4 °C, the cells were rinsed with 2 × 2 ml Pharmingen stain buffer and fixed with 4.21% (w/w) formaldehyde (BD Biosciences, #554655). Cells were analyzed on LSRFortessa X-20 (BD Biosciences) with appropiate fluorescence compensation. The data were analyzed using FlowJo. Cells were gated based on FSC and SSC. Single cells were selected using FSC-A and FSC-H and viable cells were selected using LIVE/DEAD signal. Primary antibodies used were: H-2K^b/H-2D^b (FITC, Biolegend, #114606, 1:50 dilution), HLA-A,B,C (FITC, Biolegend, #311404, 1:100 dilution), mouse IFNGR1 (PE, Invitrogen, #12-1191-82, 1:50 dilution), human IFNGR1 (PE, Miltenyi, #130-125-851, 1:50 dilution), mouse IL1R1 (APC, Biolegend, #113509, 1:20 dilution), mouse IL6R (APC, Biolegend, #115812, 1:20 dilution), mouse IFNAR1 (APC, Biolegend, #127314, 1:20 dilution), and mouse GP130 (PE, Biolegend, #149404, 1:100 dilution).
On the technique in general: In flow cytometry, cells or beads pass a laser one at a time.

Series [3] concerns B16-F10 tumour in C57BL/6 J mice. The series is described as follows: Syngeneic B16-F10 model, GVAX then anti-PD-1. Particulars: N 15, in mm³ (unit assumed). Type of series: in vivo, mouse. Here is the method: Female C57BL/6 J mice (stock no: 000664, Jackson Laboratory) between 7–8 weeks of age weighing approximately 18–22 g were used for the study. […] One day after tumour inoculation, mice were dosed subcutaneously into the abdomen with 1.0 × 10^6 per 100 µl GM-CSF-secreting B16 (GVAX) cells that had been irradiated with 35 Gy from a ^137Cs source discharging 124 rads min^−1. GVAX treatment was repeated on day 4. […] The treatment was repeated on day 9, 12, and 15. The start of the study where tumour inoculation is conducted is designated as day 0.
Body weights were taken twice per week.

For series [4], the system named is B16-F10 cells. The series is described as follows: Validation of monoclonal Stub1-knockout lines (Western, ICE CRISPR analysis). In kind it is cell-based, murine. Particulars: single clone from Stub1-knockout B16-F10 cells. Here is the method:
Tumour cells were genetically edited by electroporating the Cas9/crRNA/tracrRNA or Cas9/sgRNA ribonucleoprotein (RNP) complexes into cells using the 4D-nucleofector system (Lonza). To prepare the guide RNA complex, a 1:1 mixture of Alt-R crRNA and tracrRNA (50 µM each, IDT) in nuclease-free duplex buffer (IDT) was heated at 95 °C for 5 min, followed by cooling to room temperature. The crRNA/tracrRNA complex or the sgRNA (150 pmol) was mixed with Alt-R S.p. HiFi Cas9 Nuclease V3 (100 pmol, IDT, #1081060), and the resulting mixture was incubated at room temperature for 10 min to form the final RNP complexes which were used immediately. In parallel, the harvested tumour cells were rinsed with PBS. After re-suspending in 20 µl nucleofactor solution (Lonza), the cell suspension was added to the final RNP complexes (4.6 µl) in microcentrifuge tube. The resulting cell suspension was transferred to a designated well of nucleocuvette strip which was then pulsed with the nucleofector system using a preset program. After pulsing, culture media (75 µl) was added and the cell suspension was transferred to a designated well of a 12-well plate filled with 1.0 ml culture media. After 48 h incubation, the CRISPR-edited B16-F10 were subcloned by limiting dilution. The monoclonal cell lines were validated by Western blotting and analyzing the Sanger sequencing results of the PCR amplicon (~ 800 bp) flanking the crRNA-targeted site using ICE v2 CRISPR analysis tool (Synthego). For CT26, the cells were sorted for the top 50th percentile of IFNGR1-high population using BD FACSAria to enrich for the Stub1-null cells (Supplementary Fig. 10a). Human tumour cells, e.g., DU145, PC-3 and MCF7, were used right after the CRISPR editing. Sorting or subcloning was not applied to the human cell lines, since these lines were studied for a brief period in in vitro setting. Loss of STUB1 protein in the human cell lines was confirmed by Western blot analysis.

In the case of IFNγ, the “FC in live-cell protease activity relative to parental cells” value is -0.23 in series [1] (MCF7 PTPN2 sgRNA, replicate 1); -0.32 in series [1] (MCF7 PTPN2 sgRNA, replicate 2); -0.34 in series [1] (MCF7 PTPN2 sgRNA, replicate 3); 0.0179 in series [1] (MCF7 Parental, replicate 1); 0.0179 in series [1] (MCF7 Parental, replicate 2); -0.0365 in series [1] (MCF7 Parental, replicate 3). Also, the “FC in live-cell protease activity relative to parental cells” value is -1.31 in series [1] (MCF7 STUB1 sgRNA, replicate 1); -1.18 in series [1] (MCF7 STUB1 sgRNA, replicate 2); -1.16 in series [1] (MCF7 STUB1 sgRNA, replicate 3); -0.0449 in series [1] (MCF7 control sgRNA, replicate 1); 0.05 in series [1] (MCF7 control sgRNA, replicate 2); 0.01 in series [1] (MCF7 control sgRNA, replicate 3).
Regarding “gStub1 #1 (guide GCATTGCTAAGAAGAAGCGC; chemistry not given here)”, the “Surface GP130 (Fig. 2d)” value is on record as 1.09 in series [2] (replicate 1), 1.26 in series [2] (replicate 2), 1.41 in series [2] (replicate 3) and 1.20 in series [2] (replicate 4). For the same substance, the “Surface IFNAR1 (Fig. 2d)” value in series [2] (replicate 1) worked out at 0.74; in series [2] (replicate 2), 0.87; in series [2] (replicate 3), 1.30; in series [2] (replicate 4), 1.03. Moreover, the “Surface IL1R1 (Fig. 2d)” value in series [2] (replicate 1) turned out to be 0.96; in series [2] (replicate 2), 0.97; in series [2] (replicate 3), 1.05; in series [2] (replicate 4), 1.02. For the same substance, the “Surface IL6R (Fig. 2d)” value in series [2] (replicate 1) is reported as 0.93; in series [2] (replicate 2), 1.17; in series [2] (replicate 3), 1.24; in series [2] (replicate 4) it was 1.10. The “tumour volume (Fig. 6b)” value in series [3] (day 5, Mean) came to 50.28; in series [3] (day 8, Mean) it was 251.2; in series [3] (day 10, Mean) it was 457.3; in series [3] (day 12, Mean), 680.5; in series [3] (day 14, Mean), 866; in series [3] (day 16, Mean), 944.8. Further, the “Comment (knock-out by Western blot and ICE analysis)” value in series [4] was “complete knock-out as assessed by Western blot and ICE analysis”. The Indel in series [4] is given as -12 -15. Also, the “Indel % (by Synthego ICE)” value in series [4] was found to be 93%.
